{"source": "patent US20240285670A1", "about": "“THERAPEUTIC TREATMENT OF TUMORS BY BLOCKING THE HEME SYNTHESIS-EXPORT AXIS” (Università degli Studi di Torino, priority 2021, published 2024)", "test_system": "Caco2 cells", "assay": "Activity of mitochondrial ETC complexes I-IV in Caco2 cells", "assay_type": "cell-based, human", "conditions": "FLVCR1a-silenced vs scramble shRNA Caco2 cells", "from_the_text": "(A, C, E) Activities of the mitochondrial electron transport chain complexes I-IV. FLVCR1a-silenced Caco2 (A), SKCO1 (C) or C80 cells (E) are compared to cells expressing a scramble shRNA. Results were expressed as nmol NAD^+/min/mg mitochondrial protein for complex I, nmol reduced cytochrome c/min/mg mitochondrial protein for complexes II-III, nmol oxidized cytochrome c/min/mg mitochondrial protein for complex IV. Data represent mean±SEM, n=3. For statistical analyses, an unpaired Student's t-test was used; *=p<0.05, **=p<0.01. (B, D, F) Mitochondrial ATP levels measured by a bioluminescent assay kit. FLVCR1a-silenced Caco2 (B), SKCO1 (D) or C80 cells (F) are compared to cells expressing a scramble shRNA. Results are expressed as nmol/mg mitochondrial proteins. Data represent mean±SEM, n=3. […] Results were expressed as nmol NAD^+/min/mg mitochondrial protein for complex I, nmol reduced cytochrome c/min/mg mitochondrial protein for complexes II-III, nmol oxidized cytochrome c/min/mg mitochondrial protein for complex IV. […] (H) Mitochondrial ATP levels measured by a bioluminescent assay kit in Caco2 cells overexpressing FLVCR1a (indicated as FLVCR1a+) compared to cells stably transduced with an empty vector. Results are expressed as nmol/mg mitochondrial proteins. […]\nThe activity of mitochondria respiration complexes was measured according to (Wibom et al., 2002)."}
{"substance": "FLVCR1a shRNA: shRNA specifically down-regulating FLVCR1a without targeting FLVCR1b; pLKO.1 lentiviral clone TRCN0000059599, antisense SEQ ID No.: 2 (antisense TTGCTAATGATGCTGTACTGG; sense CCAGTACAGCATCATTAGCAA)", "values": [{"measurement": "activity of mitochondrial respiratory chain complexes", "value": "increased activity of all the complexes involved in the mitochondrial respiratory chain"}]}
